Experimental findings from patent publication US20210236466A1, “COMPOUNDS AND COMPOSITIONS FOR TREATING CONDITIONS ASSOCIATED WITH STING ACTIVITY” (IFM Due, Inc., priority 2018, published 2021) are described below.

The test deals with T1, hSTING (Homo sapiens, UniProt Q86WV6, G230A/H232R/R293Q/R71H).
T1 construct: host or cells: THP1-Dual KO-IFNAR2 cells
T1 sequence (Q86WV6 whole entry R71H/G230A/H232R/R293Q): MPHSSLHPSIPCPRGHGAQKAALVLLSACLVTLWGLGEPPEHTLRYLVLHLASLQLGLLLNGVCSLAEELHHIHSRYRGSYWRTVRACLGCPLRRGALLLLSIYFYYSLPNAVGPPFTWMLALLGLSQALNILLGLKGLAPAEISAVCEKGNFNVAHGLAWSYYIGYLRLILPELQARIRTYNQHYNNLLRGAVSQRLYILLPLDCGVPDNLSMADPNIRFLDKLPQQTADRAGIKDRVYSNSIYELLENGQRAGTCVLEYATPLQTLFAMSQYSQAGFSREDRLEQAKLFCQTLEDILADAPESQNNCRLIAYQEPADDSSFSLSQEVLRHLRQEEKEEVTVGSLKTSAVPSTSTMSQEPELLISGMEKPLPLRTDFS
Briefly: STING reporter assay: luciferase reporter activity in THP1-Dual KO-IFNAR2 cells stimulated with 2'3'cGAMP. Type of test: cell-based. As to conditions: 15 μM 2'3'cGAMP, 24 h. As to the method: STING pathway activation by the compounds described herein is measured using THP1-Dual™ cells (KO-IFNAR2).
THP1-Dual™ KO-IFNAR2 Cells (obtained from invivogen) are maintained in RPMI, 10% FCS, 5 ml P/S, 2 mM L-glut, 10 mM Hepes, and 1 mM sodium pyruvate. Compounds are spotted in empty 384 well tissue culture plates (Greiner 781182) by Echo for a final concentration of 0.0017-100 μM. Cells are plated into the TC plates at 40 μL per well, 2×10E6 cells/mL. For activation with STING ligand, 2′3′cGAMP (MW 718.38, obtained from Invivogen), is prepared in Optimem media.
The following solutions are prepared for each 1×384 plate: • Solution A: 2 mL Optimem with one of the following stimuli: • 60 uL of 10 mM 2′3′cGAMP->150 μM stock • Solution B: 2 mL Optimem with 60 μL Lipofectamine 2000->Incubate 5 min at RT
2 mL of solution A and 2 ml Solution B is mixed and incubated for 20 min at room temperature (RT). 20 uL of transfection solution (A+B) is added on top of the plated cells, with a final 2′3′cGAMP concentration of 15 μM. The plates are then centrifuged immediately at 340 g for 1 minute, after which they are incubated at 37° C. 5% CO2, >98% humidity for 24 h. Luciferase reporter activity is then measured. EC50 values are calculated by using standard methods known in the art.
Luciferase reporter assay: 10 μL of supernatant from the assay is transferred to white 384-plate with flat bottom and squared wells, one pouch of QUANTI-Luc™ Plus is dissolved in 25 mL of water. 100 μL of QLC Stabilizer per 25 mL of QUANTI-Luc™ Plus solution is added. 50 μL of QUANTI-Luc™ Plus/QLC solution per well is then added. Luminescence is measured on a Platereader (e.g., Spectramax I3X (Molecular Devices GF3637001)).
Luciferase reporter activity is then measured. EC50 values are calculated by using standard methods known in the art.
(In general: In a reporter assay the amount or activity of a reporter protein is the signal.)
For `O=C(Nc1ccc(C2CCCCC2)nc1)Nc1c[nH]nc1-c1ccccc1` [Compound 36], the EC50 was under 5 µM.

Take `O=C(Nc1ccc(C(F)(F)F)nc1)Nc1c[nH]nc1-c1ccccc1` [Compound 37]: the EC50 was 5 to 100 µM.

In turn, `O=C(Nc1ccc(C2CCCCC2)cn1)Nc1c[nH]nc1-c1ccccc1` [Compound 38] displayed an EC50 of 5 to 100 µM.

Turning to `O=C(Nc1ccc(C(F)(F)F)cn1)Nc1c[nH]nc1-c1ccccc1` [Compound 39], the EC50 is under 5 µM.

For `O=C(Nc1c[nH]nc1-c1ccccc1)NC1CCC2(CCC2)CC1` [Compound 40], the EC50 lay within 5 to 100 µM.

The compound `CCCCc1ccc(NC(=O)Nc2c[nH]nc2C)cc1` [Compound 41] had an EC50 of 5 to 100 µM.

Compound `CCCCc1ccc(NC(=O)Nc2c[nH]nc2-c2ccsc2)cc1` [Compound 42] showed an EC50 of under 5 µM.

On to `CCCCc1ccc(NC(=O)Nc2c[nH]nc2-c2nccs2)cc1` [Compound 43], for which the EC50 was under 5 µM.

For `CCCCc1ccc(NC(=O)Nc2c[nH]nc2C2CCCCC2)cc1` [Compound 44], the EC50 is 5 to 100 µM.

With `CCCCc1ccc(NC(=O)Nc2c[nH]nc2-c2ccccc2F)cc1` [Compound 45], the EC50 is under 5 µM.

`CCCCc1cccc(NC(=O)Nc2c[nH]nc2-c2ccccc2)c1` [Compound 46] came in with an EC50 of 5 to 100 µM.

Take `CCCCc1ccc(NC(=O)Nc2c[nH]nc2-c2ccccn2)cc1` [Compound 47]: the EC50 is under 5 µM.

The compound `CC(C)(C)C1CCC(NC(=O)Nc2c[nH]nc2-c2ccccc2)CC1` (stereo not drawn) [Compound 48] registered an EC50 of 5 to 100 µM.

`O=C(Nc1c[nH]nc1-c1ccccc1)NC1CCc2ccccc2C1` (stereo not drawn) [Compound 49] came in with an EC50 of 5 to 100 µM.

Consider `O=C(Nc1c[nH]nc1-c1ccccc1)NC1CCCc2ccccc21` (stereo not drawn) [Compound 50], for which the EC50 fell in the range of 5 to 100 µM.

In turn, `O=C(Nc1c[nH]nc1-c1ccccc1)NC1CCCC(c2ccccc2)C1` (stereo not drawn) [Compound 51, 3-(3-Phenyl-1H-pyrazol-4-yl)-1-(3-phenylcyclohexyl)urea] yielded an EC50 of 5 to 100 µM.

Take `CCCCc1ccc(NC(=O)Nc2cn[nH]c2)cc1` [Compound 52]: the concentration giving a half-maximal response (EC50) lay in the range of 5 to 100 µM.

In turn, `CCCCC1CCC(NC(=O)Nc2c[nH]nc2-c2ccccc2)CC1` (stereo not drawn) [Compound 54] gave an EC50 of 5 to 100 µM.

Turning to `O=C(Nc1c[nH]nc1-c1ccccc1)NC1CCC(c2ccccc2)CC1` (stereo not drawn) [Compound 55], the 50% effective concentration (EC50) was in the range of 5 to 100 µM.

`O=C(Nc1cccc(C(F)(F)F)c1)Nc1c[nH]nc1-c1ccccc1` [Compound 56] came in with an EC50 of 5 to 100 µM.

`O=C(Nc1ccc(C(F)(F)F)cc1)Nc1cn[nH]c1` [Compound 57]: the EC50 fell in the range of 5 to 100 µM.

`O=C(Nc1ccc(C(F)(F)F)cc1)Nc1c[nH]nc1-c1ccccc1` [Compound 58] registered an EC50 of 5 to 100 µM.

In turn, `CCCCc1ccc(NC(=O)Nc2c[nH]nc2-c2ccccc2)cc1` [Compound 59, l-(4-Butylphenyl)-3-(3-phenyl-1H-pyrazol-4-yl)urea] had an EC50 of under 5 µM.

As to `CCCCc1ccc(NC(=O)N2CCCc3n[nH]cc32)cc1` [Compound 60], the EC50 was 5 to 100 µM.

One may read the EC50 as the concentration giving half of the maximal effect.
